Assays:
[1] = Drug metabolism in rat hepatocytes assessed as 2-(difluoromethyl)-5-((3-hydroxy-2-methylpropanamido)methyl)-N-(4-methyl-5-(4-(trifluoromethyl)phenyl)-1H-imidazol-2-yl)nicotinamide formation at 2 uM after 4 hrs by LC-MS/MS analysis; format: ADME, cell-based, Hepatocyte
[2] = Drug metabolism in human hepatocytes assessed as 2-(difluoromethyl)-5-((3-hydroxy-2-methylpropanamido)methyl)-N-(4-methyl-5-(4-(trifluoromethyl)phenyl)-1H-imidazol-2-yl)nicotinamide formation at 2 uM after 4 hrs by LC-MS/MS analysis; format: ADME, cell-based, Hepatocyte
[3] = Drug metabolism in rat hepatocytes assessed as 2-(difluoromethyl)-5-((2-hydroxy-2-methylpropanamido)methyl)-N-(4-methyl-5-(4-(trifluoromethyl)phenyl)-1H-imidazol-2-yl)nicotinamide formation at 2 uM after 4 hrs by LC-MS/MS analysis; format: ADME, cell-based, Hepatocyte
[4] = Drug metabolism in dog hepatocytes assessed as 2-(difluoromethyl)-5-((2-hydroxy-2-methylpropanamido)methyl)-N-(4-methyl-5-(4-(trifluoromethyl)phenyl)-1H-imidazol-2-yl)nicotinamide formation at 2 uM after 4 hrs by LC-MS/MS analysis; format: ADME, cell-based, Canis lupus familiaris, Hepatocyte
[5] = Drug metabolism in human hepatocytes assessed as 2-(difluoromethyl)-5-((2-hydroxy-2-methylpropanamido)methyl)-N-(4-methyl-5-(4-(trifluoromethyl)phenyl)-1H-imidazol-2-yl)nicotinamide formation at 2 uM after 4 hrs by LC-MS/MS analysis; format: ADME, cell-based, Hepatocyte
[6] = Drug metabolism in rat hepatocytes assessed as N-carbamimidoyl-2-(difluoromethyl)-5-(isobutyramidomethyl)nicotinamide formation at 2 uM after 4 hrs by LC-MS/MS analysis; format: ADME, cell-based, Hepatocyte
[7] = Drug metabolism in dog hepatocytes assessed as N-carbamimidoyl-2-(difluoromethyl)-5-(isobutyramidomethyl)nicotinamide formation at 2 uM after 4 hrs by LC-MS/MS analysis; format: ADME, cell-based, Canis lupus familiaris, Hepatocyte
[8] = Drug metabolism in human hepatocytes assessed as N-carbamimidoyl-2-(difluoromethyl)-5-(isobutyramidomethyl)nicotinamide formation at 2 uM after 4 hrs by LC-MS/MS analysis; format: ADME, cell-based, Hepatocyte
[9] = Drug metabolism in rat hepatocytes assessed as 2-(difluoromethyl)-5-(methacrylamidomethyl)-N-(4-methyl-5-(4-(trifluoromethyl)phenyl)-1H-imidazol-2-yl)nicotinamide formation at 2 uM after 4 hrs by LC-MS/MS analysis; format: ADME, cell-based, Hepatocyte
[10] = Drug metabolism in rat hepatocytes assessed as 4-methyl-5-(4-(trifluoromethyl)phenyl)-1H-imidazol-2-amine formation at 2 uM after 4 hrs by LC-MS/MS analysis; format: ADME, cell-based, Hepatocyte
[11] = Drug metabolism in human hepatocytes assessed as 4-methyl-5-(4-(trifluoromethyl)phenyl)-1H-imidazol-2-amine formation at 2 uM after 4 hrs by LC-MS/MS analysis; format: ADME, cell-based, Hepatocyte
[12] = Drug metabolism in rat hepatocytes assessed as metabolite M7 formation at 2 uM after 4 hrs by LC-MS/MS analysis; format: ADME, cell-based, Hepatocyte
[13] = Drug metabolism in human hepatocytes assessed as metabolite M7 formation at 2 uM after 4 hrs by LC-MS/MS analysis; format: ADME, cell-based, Hepatocyte
[14] = Drug metabolism in human liver microsomes assessed as metabolite M7 formation at 2 uM in presence of 1:1 ratio of unlabeled GSH and [glycine 13C2,15N]-labelled GSH after 0.5 hrs by HPLC-MS analysis; format: ADME, microsome
[15] = Drug metabolism in human liver microsomes assessed as metabolite M9 formation at 2 uM in presence of 1:1 ratio of unlabeled GSH and [glycine 13C2,15N]-labelled GSH after 0.5 hrs by HPLC-MS analysis; format: ADME, microsome
[16] = Drug metabolism in Sprague-Dawley rat plasma assessed as 2-(difluoromethyl)-5-((3-hydroxy-2-methylpropanamido)methyl)-N-(4-methyl-5-(4-(trifluoromethyl)phenyl)-1H-imidazol-2-yl)nicotinamide formation at 1000 mg/kg, po measured after 2 hrs post dose by LC/MS analysis; format: ADME, organism-based; details: in vivo
[17] = Drug metabolism in Beagle dog plasma assessed as 2-(difluoromethyl)-5-((3-hydroxy-2-methylpropanamido)methyl)-N-(4-methyl-5-(4-(trifluoromethyl)phenyl)-1H-imidazol-2-yl)nicotinamide formation at 300 to 600 mg/kg, po measured after 2 hrs post dose by LC/MS analysis; format: ADME, organism-based, Canis lupus familiaris; details: in vivo
[18] = In vivo drug metabolism in human plasma assessed as 2-(difluoromethyl)-5-((3-hydroxy-2-methylpropanamido)methyl)-N-(4-methyl-5-(4-(trifluoromethyl)phenyl)-1H-imidazol-2-yl)nicotinamide formation HPLC-MS analysis; format: ADME, organism-based
[19] = Drug metabolism in Sprague-Dawley rat plasma assessed as 2-(difluoromethyl)-5-((2-hydroxy-2-methylpropanamido)methyl)-N-(4-methyl-5-(4-(trifluoromethyl)phenyl)-1H-imidazol-2-yl)nicotinamide formation at 1000 mg/kg, po measured after 2 hrs post dose by LC/MS analysis; format: ADME, organism-based; details: in vivo
[20] = Drug metabolism in Beagle dog plasma assessed as 2-(difluoromethyl)-5-((2-hydroxy-2-methylpropanamido)methyl)-N-(4-methyl-5-(4-(trifluoromethyl)phenyl)-1H-imidazol-2-yl)nicotinamide formation at 300 to 600 mg/kg, po measured after 2 hrs post dose by LC/MS analysis; format: ADME, organism-based, Canis lupus familiaris; details: in vivo
[21] = In vivo drug metabolism in human plasma assessed as 2-(difluoromethyl)-5-((2-hydroxy-2-methylpropanamido)methyl)-N-(4-methyl-5-(4-(trifluoromethyl)phenyl)-1H-imidazol-2-yl)nicotinamide formation HPLC-MS analysis; format: ADME, organism-based
[22] = In vivo drug metabolism in human plasma assessed as 2-(difluoromethyl)-5-(methacrylamidomethyl)-N-(4-methyl-5-(4-(trifluoromethyl)phenyl)-1H-imidazol-2-yl)nicotinamide formation HPLC-MS analysis; format: ADME, organism-based
[23] = Drug metabolism in Sprague-Dawley rat plasma assessed as 5-(aminomethyl)-2-(difluoromethyl)-N-(4-methyl-5-(4-(trifluoromethyl)phenyl)-1H-imidazol-2-yl)nicotinamide formation at 1000 mg/kg, po measured after 2 hrs post dose by LC/MS analysis; format: ADME, organism-based; details: in vivo
[24] = Drug metabolism in Sprague-Dawley rat plasma assessed as 4-methyl-5-(4-(trifluoromethyl)phenyl)-1H-imidazol-2-amine formation at 1000 mg/kg, po measured after 2 hrs post dose by LC/MS analysis; format: ADME, organism-based; details: in vivo
[25] = Drug metabolism in Beagle dog plasma assessed as 4-methyl-5-(4-(trifluoromethyl)phenyl)-1H-imidazol-2-amine formation at 300 to 600 mg/kg, po measured after 2 hrs post dose by LC/MS analysis; format: ADME, organism-based, Canis lupus familiaris; details: in vivo
[26] = In vivo drug metabolism in human urine assessed as 2-(difluoromethyl)-5-((3-hydroxy-2-methylpropanamido)methyl)-N-(4-methyl-5-(4-(trifluoromethyl)phenyl)-1H-imidazol-2-yl)nicotinamide formation by HPLC-MS analysis; format: ADME, organism-based
[27] = In vivo drug metabolism in human urine assessed as 2-(difluoromethyl)-5-((2-hydroxy-2-methylpropanamido)methyl)-N-(4-methyl-5-(4-(trifluoromethyl)phenyl)-1H-imidazol-2-yl)nicotinamide formation by HPLC-MS analysis; format: ADME, organism-based
[28] = In vivo drug metabolism in human urine assessed as N-carbamimidoyl-2-(difluoromethyl)-5-(isobutyramidomethyl)nicotinamide formation by HPLC-MS analysis; format: ADME, organism-based
[29] = In vivo drug metabolism in human urine assessed as 5-(aminomethyl)-2-(difluoromethyl)-N-(4-methyl-5-(4-(trifluoromethyl)phenyl)-1H-imidazol-2-yl)nicotinamide formation by HPLC-MS analysis; format: ADME, organism-based
[30] = Drug metabolism in rat hepatocytes assessed as 2-chloro-N-(4-cyano-1H-imidazol-2-yl)-5-((3-hydroxy-2,2-dimethylpropanamido)methyl)benzamide formation at 2 uM after 4 hrs by LC-MS/MS analysis; format: ADME, cell-based, Hepatocyte
[31] = Drug metabolism in human hepatocytes assessed as 2-chloro-N-(4-cyano-1H-imidazol-2-yl)-5-((3-hydroxy-2,2-dimethylpropanamido)methyl)benzamide formation at 2 uM after 4 hrs by LC-MS/MS analysis; format: ADME, cell-based, Hepatocyte
[32] = Drug metabolism in rat hepatocytes assessed as 2-(2-chloro-5-(pivalamidomethyl)benzamido)-1H-imidazole-4-carboxylic acid formation at 2 uM after 4 hrs by LC-MS/MS analysis; format: ADME, cell-based, Hepatocyte
[33] = Drug metabolism in human hepatocytes assessed as 2-(2-chloro-5-(pivalamidomethyl)benzamido)-1H-imidazole-4-carboxylic acid formation at 2 uM after 4 hrs by LC-MS/MS analysis; format: ADME, cell-based, Hepatocyte
[34] = Drug metabolism in rat hepatocytes assessed as metabolite M2 formation at 2 uM after 4 hrs by LC-MS/MS analysis; format: ADME, cell-based, Hepatocyte
[35] = Drug metabolism in human hepatocytes assessed as metabolite M2 formation at 2 uM after 4 hrs by LC-MS/MS analysis; format: ADME, cell-based, Hepatocyte
[36] = Drug metabolism in human hepatocytes assessed as 2-(2-chloro-5-((3-hydroxy-2,2-dimethylpropanamido)methyl)benzamido)-N-phenyl-1H-imidazole-4-carboxamide formation at 2 uM after 4 hrs by LC-MS/MS analysis; format: ADME, cell-based, Hepatocyte
[37] = Drug metabolism in rat hepatocytes assessed as 2-chloro-5-(pivalamidomethyl)benzoic acid formation at 2 uM after 4 hrs by LC-MS/MS analysis; format: ADME, cell-based, Hepatocyte
[38] = Drug metabolism in human hepatocytes assessed as 2-chloro-5-(pivalamidomethyl)benzoic acid formation at 2 uM after 4 hrs by LC-MS/MS analysis; format: ADME, cell-based, Hepatocyte
[39] = Drug metabolism in rat hepatocytes assessed as 2-(2-chloro-5-((3-hydroxy-2,2-dimethylpropanamido)methyl)benzamido)-N-phenyl-1H-imidazole-4-carboxamide at 2 uM after 4 hrs by LC-MS/MS analysis; format: ADME, cell-based, Hepatocyte

Measured: Drug metabolism

Cc1nc(NC(=O)c2cc(CNC(=O)C(C)C)cnc2C(F)F)[nH]c1-c1ccc(C(F)(F)F)cc1
not listed: [30] | [31] | [32] | [33] | [34] | [35] | [36] | [37] | [38] | [39]
Metabolite_Detected: all other assays above

CC(C)(C)C(=O)NCc1ccc(Cl)c(C(=O)Nc2nc(C#N)c[nH]2)c1
Metabolite_Detected: [30] | [31]

CC(C)(C)C(=O)NCc1ccc(Cl)c(C(=O)Nc2nc(C(=O)Nc3ccccc3)c[nH]2)c1
Metabolite_Detected: [32] | [33] | [34] | [35] | [36] | [37] | [38] | [39]

— ChEMBL document CHEMBL4219066, “Identification and Mitigation of Reactive Metabolites of 2-Aminoimidazole-Containing Microsomal Prostaglandin E Synthase-1 Inhibitors Terminated Due to Clinical Drug-Induced Liver Injury” (J Med Chem, 2018)
